Experimental data published in patent US6737383B1, “Herbicidal oxadiazolidines” (priority 1999, dated 2004).

Key:
[1] = tested on: wild oat; assay: Test B pre/postemergence wild oat; type: in vivo, Avena fatua
Method in brief: (§1)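 Herbicidal effect was estimated by eye on a ten-point control scale after plants spent twelve to sixteen days in a greenhouse following soil or foliar treatment. Foliar sprays targeted plants at one to four leaves; all doses were formulated in a non-phytotoxic solvent with surfactant.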

[2] = tested on: rice; assay: Test B flood test rice; type: in vivo, Oryza sativa
Method in brief: (§2)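 Plants were grown to the 2-leaf stage before treatment with test chemical, then held in a greenhouse for twelve to sixteen days. Injury was visually rated against untreated controls on a 0–10 scale, where 0 is no effect and 10 is complete control.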

[3] = tested on: rape; assay: Test B pre/postemergence rape; type: in vivo, Brassica napus
Method in brief: as §1

[4] = tested on: smallflower flatsedge; assay: Test B flood test smallflower flatsedge; type: in vivo, Cyperus difformis
Method in brief: as §2

[5] = tested on: giant foxtail; assay: Test B pre/postemergence giant foxtail; type: in vivo, Setaria faberii
Method in brief: as §1

[6] = tested on: crabgrass; assay: Test B pre/postemergence crabgrass; type: in vivo, Digitaria sanguinalis
Method in brief: as §1

[7] = tested on: duck salad; assay: Test B flood test duck salad; type: in vivo, Heteranthera limosa
Method in brief: as §2

[8] = tested on: bedstraw; assay: Test B pre/postemergence bedstraw; type: in vivo, Galium aparine
Method in brief: as §1

[9] = tested on: velvetleaf; assay: Test B pre/postemergence velvetleaf; type: in vivo, Abutilon theophrasti
Method in brief: as §1

[10] = tested on: sugar beet; assay: Test B pre/postemergence sugar beet; type: in vivo, Beta vulgaris
Method in brief: as §1

[11] = tested on: bamyardgrass; assay: Test B flood test barnyardgrass; type: in vivo, Echinochloa crus-galli
Method in brief: as §2

[12] = tested on: corn; assay: Test B pre/postemergence corn; type: in vivo, Zea mays
Method in brief: as §1

[13] = tested on: purple nutsedge; assay: Test B pre/postemergence purple nutsedge; type: in vivo, Cyperus rotundus
Method in brief: as §1

[14] = tested on: surinam grass; assay: Test B pre/postemergence surinam grass; type: in vivo, Brachiaria decumbens
Method in brief: as §1

[15] = tested on: blackgrass; assay: Test B pre/postemergence blackgrass; type: in vivo, Alopecurus myosuroides
Method in brief: as §1

[16] = tested on: wheat; assay: Test B pre/postemergence wheat; type: in vivo, Triticum aestivum
Method in brief: as §1

[17] = Postemergence, Rate 62 g/ha, scale 0 to 10, 0 is no effect, 10 is complete control
[18] = Postemergence, Rate 250 g/ha, scale 0 to 10, 0 no effect, 10 complete control
[19] = Preemergence, Rate 62 g/ha, scale 0 to 10 (0 no effect, 10 complete control)
[20] = Preemergence, Rate 125 g/ha, scale 0 to 10 (0 no effect, 10 complete control)
[21] = Preemergence, Rate 250 g/ha, scale of 0 to 10 where 0 is no effect and 10 is complete control
[22] = Preemergence, Rate 500 g/ha, scale 0 (no effect) to 10 (complete control)
[23] = Rate 125 g/ha, Postemergence, scale 0 to 10, 0 no effect, 10 complete control
[24] = Rate 500 g/ha, Postemergence, scale 0 to 10, 0 no effect, 10 complete control
[25] = Rate 125 g/ha, Postemergence section (flood test species), scale 0 to 10, 0 no effect, 10 complete control
[26] = Rate 500 g/ha, listed under Postemergence (flood test species), scale 0 to 10, 0 no effect, 10 complete control
[27] = flood test, listed under Postemergence, Rate 250 g/ha, scale 0 to 10, 0 no effect, 10 complete control

Cc1ccccc1Cn1c(=O)on(C(=O)N(C)c2ccccc2)c1=O [Compound 85]
0: Wild oats plant response rating [1, 17] | Wild oats plant response rating [1, 18] | Wild oats plant response rating [1, 19] | Plant response rating, Wild oats [1, 20] | Plant response rating, Wild oats [1, 21] | Wild oats plant response rating [1, 22] | Wild oats plant response rating [1, 23] | Wild oats plant response rating [1, 24] | Rice plant response rating [2, 17] | Rice plant response rating [2, 25] | Rice plant response rating [2, 26] | Rice plant response rating [2, 27] | Rape plant response rating [3, 17] | Rape plant response rating [3, 18] | Rape plant response rating [3, 19] | Plant response rating, Rape [3, 20] | Plant response rating, Rape [3, 21] | Rape plant response rating [3, 22] | Rape plant response rating [3, 23] | Rape plant response rating [3, 24] | S. Flatsedge plant response rating [4, 17] | S. Flatsedge plant response rating [4, 25] | S. Flatsedge plant response rating [4, 26] | S. Flatsedge plant response rating [4, 27] | Giant foxtail plant response rating [5, 17] | Giant foxtail plant response rating [5, 18] | Giant foxtail plant response rating [5, 19] | Plant response rating, Giant foxtail [5, 20] | Plant response rating, Giant foxtail [5, 21] | Giant foxtail plant response rating [5, 22] | Giant foxtail plant response rating [5, 23] | Giant foxtail plant response rating [5, 24] | Crabgrass plant response rating [6, 17] | Crabgrass plant response rating [6, 18] | Crabgrass plant response rating [6, 19] | Plant response rating, Crabgrass [6, 20] | Plant response rating, Crabgrass [6, 21] | Crabgrass plant response rating [6, 22] | Crabgrass plant response rating [6, 23] | Crabgrass plant response rating [6, 24] | Ducksalad plant response rating [7, 17] | Ducksalad plant response rating [7, 25] | Ducksalad plant response rating [7, 26] | Ducksalad plant response rating [7, 27] | Bedstraw plant response rating [8, 17] | Bedstraw plant response rating [8, 18] | Bedstraw plant response rating [8, 19] | Plant response rating, Bedstraw [8, 20] | Plant response rating, Bedstraw [8, 21] | Bedstraw plant response rating [8, 22] | Bedstraw plant response rating [8, 23] | Bedstraw plant response rating [8, 24] | Velvetleaf plant response rating [9, 17] | Velvetleaf plant response rating [9, 18] | Velvetleaf plant response rating [9, 19] | Plant response rating, Velvetleaf [9, 20] | Plant response rating, Velvetleaf [9, 21] | Velvetleaf plant response rating [9, 22] | Velvetleaf plant response rating [9, 23] | Velvetleaf plant response rating [9, 24] | Sugarbeets plant response rating [10, 17] | Sugarbeets plant response rating [10, 18] | Sugarbeets plant response rating [10, 19] | Plant response rating, Sugarbeets [10, 20] | Plant response rating, Sugarbeets [10, 21] | Sugarbeets plant response rating [10, 22] | Sugarbeets plant response rating [10, 23] | Sugarbeets plant response rating [10, 24] | Barnyardgrass plant response rating [11, 17] | Barnyardgrass plant response rating [11, 25] | Barnyardgrass plant response rating [11, 26] | Barnyardgrass plant response rating [11, 27] | Corn plant response rating [12, 17] | Corn plant response rating [12, 18] | Corn plant response rating [12, 19] | Plant response rating, Corn [12, 20] | Plant response rating, Corn [12, 21] | Corn plant response rating [12, 22] | Corn plant response rating [12, 23] | Corn plant response rating [12, 24] | Nutsedge plant response rating [13, 17] | Nutsedge plant response rating [13, 18] | Nutsedge plant response rating [13, 19] | Plant response rating, Nutsedge [13, 20] | Plant response rating, Nutsedge [13, 21] | Nutsedge plant response rating [13, 22] | Nutsedge plant response rating [13, 23] | Nutsedge plant response rating [13, 24] | B. signalgrass plant response rating [14, 17] | B. signalgrass plant response rating [14, 18] | B. signalgrass plant response rating [14, 19] | Plant response rating, B. signalgrass [14, 20] | Plant response rating, B. signalgrass [14, 21] | B. signalgrass plant response rating [14, 22] | B. signalgrass plant response rating [14, 23] | B. signalgrass plant response rating ([14]; Rate 500 g/ha, Postemergence, scale of 0 to 10 where 0 is no effect and 10 is complete control) | Blackgrass plant response rating [15, 17] | Blackgrass plant response rating [15, 18] | Blackgrass plant response rating [15, 19] | Plant response rating, Blackgrass [15, 20] | Plant response rating, Blackgrass [15, 21] | Blackgrass plant response rating [15, 22] | Blackgrass plant response rating [15, 23] | Blackgrass plant response rating [15, 24] | Wheat plant response rating [16, 17] | Wheat plant response rating [16, 18] | Wheat plant response rating [16, 19] | Plant response rating, Wheat [16, 20] | Plant response rating, Wheat [16, 21] | Wheat plant response rating [16, 22] | Wheat plant response rating [16, 23] | Wheat plant response rating [16, 24]
